# Reference: patent US20220175862A1, “CO-ADMINISTRATION COMPOSITION FOR PREVENTING OR TREATING HYPERCHOLESTEROLEMIA, CONTAINING BALLOON-FLOWER EXTRACT OR PLATYCODIN D DERIVED THEREFROM AS ACTIVE INGREDIENT” (University-Industry Cooperation Group of Kyung Hee …, priority 2019, published 2022)
# Assays:
# HepG2 cells = assay: Cell viability assay (WST); format: cell-based; details: 24 h
# Method: Cells were dispensed in a 96-well plate and treated with PG (10 μg/mL, 50 μg/mL, 100 μg/mL, 250 μg/mL, 500 μg/mL) or PD (1 μM, 2.5 μM, 5 μM) for 24 h. After incubation, a WST solution (Daeillab Service, Co., Seoul, Korea) was added to each well and further incubated for 2 h. Next, water-soluble formazan in the medium was measured at 450 nm using an ELISA reader (Molecular Devices, Palo Alto, Calif.).
# To investigate whether PG and PD display cytotoxic effects on HepG2 cells, cell viability was examined by WST1 assay following treatment with different concentrations of PG (10 μg/mL, 50 μg/mL, 100 µg/mL, 250 μg/mL, 500 μg/mL) or PD (1 μM, 2.5 μM, 5 μM). […] However, when high concentrations of 500 μg/mL of PG and 5 μM of PD were treated, cell viability was measured as 85% and 86%, respectively.
# [1] = tested on: LDLR expression in HepG2 cells; assay: LDLR protein expression by Western blot; format: cell-based; details: 24 h
# Method: (§1) Cells were treated with PD and PG for 24 h. Proteins were separated on 10% SDS-PAGE and transferred to nitrocellulose membranes. The membranes were incubated overnight at 4° C. For reference, anti-LDLR, Mylip/IDOL and LXRα were purchased from Abcam (Cambridge, UK), and anti-GAPDH was purchased from Cell Signaling (MA, USA). Further, anti-PCSK9 was purchased from Proteintech (Chicago. USA). The blots were then incubated with HRP-conjugated secondary antibody for 1 h at room temperature and measured using a Pierce ECL Western Blotting Substrate (Thermo Scientific, MA, USA).
# There is a report that LDLR mediates the uptake of LDL-induced cholesterol from plasma, lowering blood cholesterol levels. Therefore, it was examined whether PG and PD upregulate LDLR expression in HepG2 cells.
# Generally, statins are widely used for lowering blood levels of LDL-C, because they upregulate hepatic LDLR expression and enhance the uptake of LDL-C in the blood. To investigate whether PG and PD have a synergistic effect with statins on LDLR expression, HepG2 cells were treated with PG or PD together with simvastatin for 24 h, and then the expression levels of LDLR were examined by Western blotting.
# [2] = tested on: cell surface LDLR in HepG2 cells; assay: Cell surface LDLR analysis by flow cytometry; format: cell-based; details: 2.5 μM of PD, 24 h
# Method: Cells were treated as described above for 24 h, harvested, and then incubated at 37° C. for 30 min with anti-LDLR (Abcam, Cambridge, UK) diluted at 1:60 in PBS containing 5% BSA. The cells were washed with 1% BSA in PBS and incubated with Alexa Fluor 488-conjugated goat anti-rabbit IgG (Invitrogen, CA, USA) using a 1:250 dilution at 37° C. for 30 min. The cells were fixed with 0.5% PFA for 10 min, resuspended in PBS, and measured by flow cytometry (FACSCalibur, BD Biosciences, San Jose, Calif., USA). Data were analyzed using a CellQuest Pro software (BD Biosciences, USA).
# Next, FACS analysis was performed to examine whether PG and PD increase LDLR expression on cell surface.
# [3] = tested on: LDL uptake in HepG2 cells; assay: LDL uptake assay (BODIPY-FL-LDL, confocal microscopy); format: cell-based; details: PD 2.5 μM 24 h, then BODIPY-LDL 1 h
# Method: Cells were dispensed in a 24-well plate and treated as described above. After treatment with drugs, the culture medium was removed and replaced with 5 μg/mL of BODIPY-FL-LDL (Invitrogen, CA, USA) at 37° C. for 1 h. The cells were washed with PBS containing 0.3% BSA and fixed with 4% paraformaldehyde (PFA) for 10 min. Nuclei were stained with 1 μg/mL of DAPI in 2% BSA for 1 min and analyzed using confocal microscopy.
# Then, confocal microscopy was performed.
# LDLR mRNA in HepG2 cells = assay: LDLR mRNA expression by RT-PCR; format: cell-based; details: PD 1 μM, 2.5 μM, 24 h
# Method: (§2) Cells were dispensed in a 6-well plate, and treated with PD or PG for 24 h, and then total RNA was extracted using an R&A-BLUE Total RNA extraction kit (iNtRON Biotechnology, Inc., Korea). Next, complementary DNA (cDNA) was synthesized from 1 μg of RNA using a PrimeScript 1 st strand cDNA Synthesis Kit (Takara Biotechnology, Dalian. Liaoning, China). RT-PCR was performed with a Maxime PCR PreMix Kit (i-StarTaq) (iNtRON Biotechnology, Inc., Korea). Sequences of primers used herein are as in Table 1, and GAPDH was used as an internal control.
# To define molecular mechanisms underlying the increased LDLR expression by PG and PD treatment, the effects of PG and PD on expression of genes including IDOL and PCSK9, which are known to regulate LDLR protein levels, were first examined.
# PCSK9 = PCSK9 Western blot; format: cell-based; details: 24 h, indicated concentrations
# Method: as §1
# IDOL mRNA in HepG2 cells = assay: IDOL mRNA expression by RT-PCR; format: cell-based
# Method: as §2
# To examine whether PD suppresses IDOL mRNA expression, co-treatment of T0901317 (LXR agonist) and PD was performed for 24 h. The LXR is a transcription factor that activates a target gene involved in lipid and cholesterol homeostasis, and IDOL is a representative target gene of LXR. In addition. T0901317 increases the expression of IDOL by binding to LXR.
# LDLR protein = LDLR protein stability after cycloheximide (CHX) treatment, Western blot; format: cell-based; details: PD 2.5 μM 24 h, then 100 μg/mL CHX
# Method: as §1
# Considering that IDOL mRNA is decreased upon PG and PD treatment, it could be inferred that PG and PD are able to enhance LDLR protein stability. Therefore, LDLR protein levels remaining after treatment with cycloheximide (CHX) which blocks new protein synthesis were examined.
# LXRα = LXRα protein expression by Western blot; format: cell-based; details: PD 1 μM, 2.5 μM, 5 μM, 24 h
# Method: as §1
# [4] = tested on: hypercholesterolemia-induced rat; details: cited from earlier work
smiles,measurement,setting,value
"C[C@@H]1O[C@@H](O[C@H]2[C@H](OC(=O)[C@]34CCC(C)(C)C[C@H]3C3=CC[C@@H]5[C@@]6(C)C[C@H](O)[C@H](O[C@@H]7O[C@H](CO)[C@@H](O)[C@H](O)[C@H]7O)C(CO)(CO)[C@@H]6CC[C@@]5(C)[C@]3(C)C[C@H]4O)OC[C@H](O)[C@@H]2O)[C@H](O)[C@H](O)[C@H]1O[C@@H]1OC[C@@H](O)[C@H](O[C@@H]2OC[C@](O)(CO)[C@H]2O)[C@H]1O [PD, Platycodin D]",cell viability,HepG2 cells; 5 μM of PD,86%
same,cytotoxic effects on HepG2 cells,HepG2 cells; PD 1 μM to 2.5 μM,no significant cytotoxic effects
same,LDLR expression (Western blot),[1]; HepG2 cells,induce LDLR expression in HepG2 cells in a dose-dependent manner
same,"cell surface LDLR levels, as compared with a control",[2],1.2±0.07 fold change
same,increase in the uptake of LDL particles vs untreated control cells,[3],1.7 fold
same,LDLR mRNA expression,LDLR mRNA in HepG2 cells,no significant effects
same,proteolytic process of PCSK9,PCSK9,do not affect
same,mRNA levels of IDOL,"IDOL mRNA in HepG2 cells; HepG2, 24 h",significantly decreased
same,T0901317-induced increase of IDOL mRNA,"IDOL mRNA in HepG2 cells; co-treatment PD 2.5 μM and T0901317 10 μM, 24 h",attenuated
same,"LDLR protein stability after CHX, vs untreated cells",LDLR protein,significantly stable
same,LXR-α protein levels,LXRα,did not change
same,cholesterol in the body,[4],effect of lowering cholesterol
"O=S(=O)(c1ccccc1)N(CC(F)(F)F)c1ccc(C(O)(C(F)(F)F)C(F)(F)F)cc1 [T0901317, reference compound]",mRNA levels of IDOL gene,"IDOL mRNA in HepG2 cells; T0901317 10 μM, 24 h",increased
"CCC(C)(C)C(=O)O[C@H]1C[C@@H](C)C=C2C=C[C@H](C)[C@H](CC[C@@H]3C[C@@H](O)CC(=O)O3)[C@H]21 [simvastatin, reference compound]",increase in hepatic LDLR levels vs untreated control cells,"[1]; simvastatin 1 μM alone, HepG2",approximately 2.2 fold
